For 15 compounds, Ki, IC50 and inhibition in vivo results are on record in ChEMBL document CHEMBL4177570, “Pyrazole C-region analogues of 2-(3-fluoro-4-methylsulfonylaminophenyl)propanamides as potent TRPV1 antagonists” (Bioorg Med Chem Lett, 2017).

The first assay deals with T1, Transient receptor potential cation channel subfamily V member 1 (Homo sapiens, UniProt Q8NER1). Nature of the assay: Antagonist activity at human TRPV1 expressed in CHO cells assessed as inhibition of NADA-induced intracellular calcium level preincubated with cells followed by NADA addition by Fluo-4 dye based FLIPR assay.
T1 sequence (Q8NER1 whole entry): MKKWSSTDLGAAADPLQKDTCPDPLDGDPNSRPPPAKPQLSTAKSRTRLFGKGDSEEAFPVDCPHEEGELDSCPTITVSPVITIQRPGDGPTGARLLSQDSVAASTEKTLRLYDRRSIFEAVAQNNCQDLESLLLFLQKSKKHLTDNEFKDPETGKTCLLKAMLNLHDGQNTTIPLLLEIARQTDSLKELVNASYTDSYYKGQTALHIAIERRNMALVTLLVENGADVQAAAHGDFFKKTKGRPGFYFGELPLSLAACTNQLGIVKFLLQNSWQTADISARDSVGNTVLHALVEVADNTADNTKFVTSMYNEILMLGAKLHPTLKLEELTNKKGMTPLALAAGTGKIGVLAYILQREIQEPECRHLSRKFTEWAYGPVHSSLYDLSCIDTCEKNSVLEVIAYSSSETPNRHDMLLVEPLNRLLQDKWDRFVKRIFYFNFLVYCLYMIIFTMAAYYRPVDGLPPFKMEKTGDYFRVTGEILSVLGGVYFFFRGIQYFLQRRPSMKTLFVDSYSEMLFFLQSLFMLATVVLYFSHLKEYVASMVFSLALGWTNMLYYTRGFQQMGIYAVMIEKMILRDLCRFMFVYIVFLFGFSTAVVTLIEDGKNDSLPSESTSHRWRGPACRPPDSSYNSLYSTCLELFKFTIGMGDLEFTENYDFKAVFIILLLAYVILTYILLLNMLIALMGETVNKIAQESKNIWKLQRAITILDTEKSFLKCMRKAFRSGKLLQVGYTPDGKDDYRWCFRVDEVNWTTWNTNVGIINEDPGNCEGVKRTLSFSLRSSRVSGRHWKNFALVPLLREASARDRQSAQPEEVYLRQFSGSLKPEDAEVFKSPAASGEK
Conditions: not given; call rule not given here
On to `C[C@H](C(=O)NCc1cc(C(C)(C)C)nn1-c1cccc(Cl)c1)c1ccc(NS(C)(=O)=O)c(F)c1`, for which the inhibition constant Ki was 0.04 nM.

The target in a further assay is T1, Transient receptor potential cation channel subfamily V member 1. Nature of the assay: Antagonist activity at human TRPV1 expressed in CHO cells assessed as inhibition of capsaicin-induced intracellular calcium level preincubated for 6 mins followed by capsaicin addition by Fluo-4 dye based FLIPR assay. In kind it is cell-based. Conditions: cho.
Turning to `COc1ccc(-n2nc(C(C)(C)C)cc2CNC(=O)C(C)c2ccc(NS(C)(=O)=O)c(F)c2)cc1` (stereo not drawn), the inhibition constant (Ki) result is “Not Active”. Still for that read-out and setting: the same measure for `CC(C)(C)c1cc(CNC(=O)C(c2cccc(F)c2)c2ccc(NS(C)(=O)=O)c(F)c2)n(-c2cccc(Cl)c2)n1` (stereo not drawn): “Not Active”. For the compound `Cc1ccc(C(C(=O)NCc2cc(C(C)(C)C)nn2-c2cccc(Cl)c2)c2ccc(NS(C)(=O)=O)c(F)c2)cc1` (stereo not drawn), the Ki result is “Not Active”. For the compound `CC(C)(C)c1cc(CNC(=O)C(c2ccc(NS(C)(=O)=O)c(F)c2)C2CCCCC2)n(-c2cccc(Cl)c2)n1` (stereo not drawn), the Ki result is “Not Active”. On the same count and under the same terms, the same measure for `CC(C(=O)NCc1cc(C(C)(C)C)nn1C)c1ccc(NS(C)(=O)=O)c(F)c1` (stereo not drawn): “Not Active”. On the same count and under the same terms, the same measure for `CC(C(=O)NCc1cc(C(C)(C)C)n[nH]1)c1ccc(NS(C)(=O)=O)c(F)c1` (stereo not drawn): “Not Active”.

The same assay, now with this note: read-out: Ki.
As to `CCCCCCn1nc(C(C)(C)C)cc1CNC(=O)C(C)c1ccc(NS(C)(=O)=O)c(F)c1` (stereo not drawn), the Ki came out at 27.7 nM. Same read-out and setting: the same measure for `CC(C(=O)NCc1cc(C(F)(F)F)nn1-c1ccc(Cl)cc1)c1ccc(NS(C)(=O)=O)c(F)c1` (stereo not drawn): 0.4 nM. Still for that read-out and setting: the same measure for `CCCCCn1nc(C(C)(C)C)cc1CNC(=O)C(C)c1ccc(NS(C)(=O)=O)c(F)c1` (stereo not drawn): 50.2 nM; for `CCC/C=C/n1nc(C(C)(C)C)cc1CNC(=O)C(C)c1ccc(NS(C)(=O)=O)c(F)c1` (stereo not drawn): 5.1 nM. For the compound `Cc1ccc(/C=C/c2ccc(-n3nc(C(C)(C)C)cc3CNC(=O)C(C)c3ccc(NS(C)(=O)=O)c(F)c3)cc2)cc1` (stereo not drawn), the inhibition constant (Ki) was 819 nM. On the same count and under the same terms, the same measure for `C[C@H](C(=O)NCc1cc(C(C)(C)C)nn1-c1ccc(F)c(Cl)c1)c1ccc(NS(C)(=O)=O)c(F)c1`: 0.1 nM; for `CC(C(=O)NCc1cc(C(C)(C)C)nn1-c1ccccc1)c1ccc(NS(C)(=O)=O)c(F)c1` (stereo not drawn): 8 nM.

Another assay has the same target. Nature of the assay: Antagonist activity at pH 6 to 6.3 activated human TRPV1 expressed in CHO cells assessed as inhibition of intracellular calcium level preincubated with cells followed by receptor activation by Fluo-4 dye based FLIPR assay. In kind it is cell-based.
Conditions: not given
As to `C[C@H](C(=O)NCc1cc(C(C)(C)C)nn1-c1cccc(Cl)c1)c1ccc(NS(C)(=O)=O)c(F)c1`, the IC50 result was “Not Active”.

In another assay the test system is Mus musculus. Nature of the assay: Inhibition of capsaicin-induced hypothermia in NMRI mouse at 3 mg/kg, po pretreated for 15 mins followed by capsaicin treatment measured up to 120 mins relative to control. Format: functional.
Conditions: not given
In the case of `C[C@H](C(=O)NCc1cc(C(C)(C)C)nn1-c1cccc(Cl)c1)c1ccc(NS(C)(=O)=O)c(F)c1`, the inhibition in vivo at 3 mg/kg amounted to 95%. Same read-out and setting: the same measure for `C[C@H](C(=O)NCc1cc(C(F)(F)F)nn1-c1cccc(Cl)c1)c1ccc(NS(C)(=O)=O)c(F)c1`: 85%.

For the next assay, the target named is T1, Transient receptor potential cation channel subfamily V member 1. Nature of the assay: Antagonist activity at elevated temperature activated human TRPV1 expressed in CHO cells assessed as inhibition of intracellular calcium level preincubated for 5 mins followed by receptor activation by increasing temperature to 45 degC by Fluo-4 dye based FLIPR assay. Format: cell-based.
Conditions: not given
Consider `C[C@H](C(=O)NCc1cc(C(C)(C)C)nn1-c1cccc(Cl)c1)c1ccc(NS(C)(=O)=O)c(F)c1`, for which the IC50 result is “Not Active”.
